Assay results: article PMC13267291, “In vivo functional profiling and structural characterization of the human GLP1R A316T variant” (Science Advances, 2026)

Assays:
[1] = tested on: SNAP/FLAG-hGLP1R^A316T versus ^WT; assay: GLP-1R ubiquitination assay; assay type: cell-based, rat; settings: 100 nM, 10 min; n = 5; Fig. 8K
Experimental: INS-1 832/3 Glp1r-/- SNAP/FLAG-hGLP1RWT or A316T cells plated onto 6- cm dishes were stimulated ± 100 nM exendin-4 for 10 min, washed with PBS and osmotically lysed in lysis buffer (50 mM tris-HCl, pH 7.4, 150 mM NaCl, 1% Triton X-100, 1 mM EDTA) with 1% protease inhibitor (Roche) and 1% phosphatase inhibitor cocktail (Sigma-Aldrich) at 4°C. Cell lysates were centrifuged at 12,000 g and 4°C for 10 min prior to the addition of 40 μL anti- FLAG M2 beads (A2220, Sigma-Aldrich) and overnight rotating incubation at 4°C to increase FLAG-tag binding efficiency. Samples were then centrifuged at 5,000 g for 30 s, bead pellets washed 3x in 500 μL wash buffer (50 mM Tris-HCl, 150 mM NaCl, pH 7.4), and proteins eluted with 2x urea buffer at 37°C for 10 min before Western blot analysis with anti-ubiquitin antibody (1:1,000; sc-8017, Santa Cruz Biotechnology) and sheep anti-mouse HRP secondary (1:5,000; ab6808, Abcam) followed by stripping and reblotting with anti-SNAP antibody as above to assess immunoprecipitated receptor per sample. GLP-1R ubiquitination was calculated from ubiquitin over SNAP band intensity levels under the different conditions tested using Fiji.
LC- MS/MS G LP-1R interactome analysis
INS-1 832/3 Glp1r-/- SNAP/FLAG-hGLP1RWT or A316T cells were plated onto 6-cm dishes and stimulated with vehicle or 100 nM GLP-1RA for 5 min as previously described (63). […]

[2] = tested on: hGLP1R^A316T-SmBiT versus hGLP1R^WT-SmBiT; assay: β-arrestin 2 recruitment by NanoBiT complementation; assay type: cell-based, rat
Experimental: For mini-Gs recruitment, INS-1 832/3 Glp1r^−/− cells were seeded in 6-cm dishes and transiently cotransfected with 1.7 μg each of hGLP1R^WT or ^A316T-SmBiT and LgBiT-mini-Gs constructs for 24 hours. Cells were then detached, resuspended in Hanks’ balanced salt solution (HBSS) containing NanoGlo Live Cell Reagent (1:20; Promega) with furimazine, and seeded onto white 96-well half-area plates. Baseline luminescence was immediately recorded over 8 min at 37°C in a Flexstation 3 plate reader (Molecular Devices) and for a further 30 min after GLP-1RA addition at serial doses up to 100 nM. Readings were taken every 30 s and normalized to average well baseline, and average vehicle-induced signal was subtracted to establish the agonist-induced effect. To measure β-arrestin 2 recruitment, cells were processed as above with slight modifications: INS-1 832/3 Glp1r^−/− cells were cotransfected with 1.77 μg each of hGLP1R^WT or ^A316T-SmBiT and LgBiT–β-arrestin 2 plasmids for 24 hours, and GLP-1RAs were added at serial doses up to 1 μM. AUCs were calculated for each agonist concentration and fitted to log(agonist) versus response four-parameter curves using GraphPad Prism 10.1.2, with errors propagated for mini-Gs over β-arrestin 2 recruitment bias calculations.

Substance	Effect of agonist stimulation on WT GLP-1R ubiquitination level [1]	Effect of agonist stimulation on ubiquitination of the A316T receptor [1]	Agonist-induced recruitment of β-arrestin 2, A316T versus WT, log(Emax/EC50) ([2]; serial doses up to 1 μM, n = 5, Fig. 7M)	β-arrestin 2 over Gαs signaling bias, A316T versus WT ([2]; Δlog(Emax/EC50) βarr2 − mini-Gs, Fig. 7N)
exendin-4	did not affect	significantly increased	–	–
exendin-F1	–	–	near-significant reduction	significant shift toward Gαs recruitment
